Assay results as given in PubChem BioAssay AID1745844 (Carcinogenic Potency Database (CPDB), 2022).
Calls of active or inactive are those of the source. The rule behind the calls is not given here.

Tested on: rodent lifetime carcinogenesis bioassay, tumor incidence TD50
Test: carcinogenic potency in animals, long-term in vivo studies, CPDB compilation (AID 1745844)

In the case of `O=S1(=O)CC=CC1`, the carcinogen call (mouse, strain B6C3F1, females, by gavage, site: any site (literature study), lesion: several types, types named in the paper, dosed 78 weeks, study length 90 weeks) is reported as “negative (inactive)”, the TD50 (mouse, strain B6C3F1, females, by gavage, site: lung, lesion: alveolar/bronchiolar adenoma + alveolar/bronchiolar carcinoma, dosed 78 weeks, study length 90 weeks) is reported as 1940 mg/kg/day and the TD50 (mouse, strain B6C3F1, males, by gavage, site: any site (literature study), lesion: several types, types named in the paper, dosed 78 weeks, study length 90 weeks) is reported as 631 mg/kg/day (inactive). The TD50 (mouse, strain B6C3F1, males, by gavage, site: liver, lesion: hepatocellular adenoma + hepatocellular carcinoma + neoplastic nodule, dosed 78 weeks, study length 90 weeks) was 415 mg/kg/day, the TD50 (mouse, strain B6C3F1, males, by gavage, site: lung, lesion: alveolar/bronchiolar adenoma + alveolar/bronchiolar carcinoma, dosed 78 weeks, study length 90 weeks) was 882 mg/kg/day and the TD50 (rat, strain Osborne-Mendel, females, by gavage, site: any site (literature study), lesion: several types, types named in the paper, dosed 78 weeks, study length 111 weeks) was 5370 mg/kg/day (inactive). The TD50 (rat, strain Osborne-Mendel, males, by gavage, site: any site (literature study), lesion: several types, types named in the paper, dosed 69 weeks, study length 111 weeks) was 30.8 mg/kg/day (inactive).

`O=C(O)c1cc(O)c(O)c(O)c1` was tested, and the carcinogen call (rat, strain F344/DuCrj, males, in feed, site: forestomach, lesion: squamous-cell carcinoma, dosed 60 weeks, study length 60 weeks) was “negative (inactive)” and the carcinogen call (rat, strain F344/DuCrj, males, in feed, site: forestomach, lesion: squamous-cell papilloma, dosed 60 weeks, study length 60 weeks) was “negative (inactive)”.

Work on `CC(C)(C)NC(=O)[C@H]1CC[C@H]2[C@@H]3CC[C@H]4NC(=O)C=C[C@]4(C)[C@H]3CC[C@]12C` yielded a TD50 (mouse, strain Charles River CD1, males, by gavage, site: testis, lesion: Leydig-cell adenoma, dosed 83 weeks, study length 83 weeks) of 326 mg/kg/day.

`Cc1c(COC(=O)[C@@H]2[C@H](/C=C(\Cl)C(F)(F)F)C2(C)C)cccc1-c1ccccc1` was tested, and the TD50 (mouse, strain Swiss Webster, males, in feed, site: urinary bladder, lesion: mesenchymal neoplasm, dosed 86 weeks, study length 86 weeks) was 286 mg/kg/day.

`C=CCN(CC=C)N=O` gave a TD50 (hamster, strain Syrian Golden, both sexes, by gavage, site: any site (literature study), lesion: several types, types named in the paper, dosed 53 weeks, study length 59 weeks) of 1.54 mg/kg/day, a TD50 (hamster, strain Syrian Golden, both sexes, by gavage, site: larynx, lesion: papillary polyp, dosed 53 weeks, study length 59 weeks) of 3.69 mg/kg/day and a TD50 (hamster, strain Syrian Golden, both sexes, by gavage, site: liver, lesion: cholangioma, dosed 53 weeks, study length 59 weeks) of 743 mg/kg/day. The TD50 (hamster, strain Syrian Golden, both sexes, by gavage, site: nasal cavity, posterior region, lesion: adenocarcinoma, dosed 53 weeks, study length 59 weeks) was 2.86 mg/kg/day, the TD50 (hamster, strain Syrian Golden, both sexes, by gavage, site: pharynx, lesion: papilloma, dosed 53 weeks, study length 59 weeks) was 25.3 mg/kg/day and the TD50 (hamster, strain Syrian Golden, both sexes, by gavage, site: trachea, lesion: papillary polyp, dosed 53 weeks, study length 59 weeks) was 2.84 mg/kg/day. For the same compound, the TD50 (rat, strain BD IX, females, in drinking water, site: nasal and paranasal cavity, lesion: adenocarcinoma, dosed 104 weeks, study length 104 weeks) was 33.6 mg/kg/day, the TD50 (rat, strain BD IX, females, in drinking water, site: nasal and paranasal cavity, lesion: several types, types named in the paper, dosed 104 weeks, study length 104 weeks) was 32.1 mg/kg/day and the TD50 (rat, strain BD IX, males, in drinking water, site: nasal and paranasal cavity, lesion: adenocarcinoma, dosed 104 weeks, study length 104 weeks) was 46.9 mg/kg/day. For the same compound, the TD50 (rat, strain BD IX, males, in drinking water, site: nasal and paranasal cavity, lesion: several types, types named in the paper, dosed 104 weeks, study length 104 weeks) was 36 mg/kg/day.

In the case of `Clc1cccc(-c2cccc(Cl)c2)c1`, the TD50 (rat, strain Wistar, males, in feed, site: liver, lesion: hepatocellular carcinoma, dosed 116 weeks, study length 116 weeks) is reported as 157 mg/kg/day.
